Among the data in ChEMBL document CHEMBL3351492, “Novel 3,6-bis(imidazolidine)acridines as effective photosensitizers for photodynamic therapy” (Bioorg Med Chem, 2014) are IC50, Activity and Drug uptake values, retold here.

Calls of active or inactive are those of the source. The rule behind the calls is not given here.

Series [1] relates to A2780. The experiment in a line: Cytotoxicity against human A2780 cells assessed as inhibition of cell viability for 48 hrs in 1.05 J/cm'2 UV-A irradiation by MTT assay. Particulars: A2780, light or radiation study. Format: functional, cell-based.
The test system of series [2] is A2780. Nature of the series: Cytotoxicity against human A2780 cells assessed as inhibition of cell viability for 72 hrs in 1.05 J/cm'2 UV-A irradiation by MTT assay. The format is functional, cell-based. Particulars: A2780, light or radiation study.
Series [3] concerns A2780. Nature of the series: Cytotoxicity against human A2780 cells assessed as inhibition of cell viability for 48 hrs in dark by MTT assay. The format is functional, cell-based. The note with it: A2780, 48 h.
In series [4] the test system is A2780. The experiment in a line: Cytotoxicity against human A2780 cells assessed as inhibition of cell viability for 72 hrs in dark by MTT assay. Format: functional, cell-based. Particulars: A2780, 72 h. (Tetrazolium dyes change colour on reduction, which living cells bring about.)
Series [5] relates to A2780. Nature of the series: Induction of oxidative stress in human A2780 cells assessed as reactive oxygen species production at 0.5 uM for 1 hr in 1.05 J/cm'2 UV-A irradiation by DHE assay. The format is functional, cell-based.
Series [6] deals with L1210. The experiment in a line: Cytotoxicity against mouse L1210 cells assessed as inhibition of cell viability for 48 hrs in 1.05 J/cm'2 UV-A irradiation by MTT assay. Format: functional, cell-based. The note with it: L1210, light or radiation study.
Series [7] concerns L1210. Nature of the series: Cytotoxicity against mouse L1210 cells assessed as inhibition of cell viability for 72 hrs in 1.05 J/cm'2 UV-A irradiation by MTT assay. The format is functional, cell-based. The note with it: L1210, light or radiation study.
The test system of series [8] is A2780. Nature of the series: Genotoxicity in human A2780 cells assessed as DNA damage at 0.05 to 1 uM for 1 hr in 1.05 J/cm'2 UV-A irradiation measured after 12 hrs by comet assay. The format is toxicity, cell-based. The note with it: a2780, 1 h.
For series [9], the system named is A2780. The experiment in a line: Induction of apoptosis in human A2780 cells assessed as DNA ladder formation at 1 uM after 4 hrs in dark by agarose gel. The format is functional, cell-based.
The test system of series [10] is A2780. The experiment in a line: Induction of apoptosis in human A2780 cells assessed as effect on cell morphology at 1 uM for 1 hr in dark measured after 4 hrs by fluorescence microscopy. The format is functional, cell-based.
The nature of series [11]: Cytotoxicity against mouse NIH/3T3 cells assessed as inhibition of cell viability for 72 hrs in dark by MTT assay. Format: cell-based. Particulars: NIH3T3, 72 h.
Series [12] deals with A2780. The experiment in a line: Drug uptake in human A2780 cell nucleus at 3 uM irradiated for 1 hr followed by incubated with 0.1 uM SytoRed for 35 mins. The format is ADME, cell-based. Particulars: a2780, 1 h.
In series [13] the test system is A2780. Nature of the series: Drug uptake in human A2780 cell mitochondria assessed per focused cells at 0.5 uM for 1 hr in dark by incubated with 0.1 uM MitoRed for 15 mins. Format: ADME, cell-based. The note with it: a2780, 1 h.
Series [14] is described as follows: Cytotoxicity against mouse NIH/3T3 cells assessed as inhibition of cell viability for 72 hrs in 1.05 J/cm'2 UV-A irradiation by MTT assay. The format is cell-based. The note with it: NIH3T3, light or radiation study.
For series [15], the system named is A2780. Nature of the series: Induction of apoptosis in human A2780 cells assessed as DNA ladder formation at 1 uM for 1 hr in 1.05 J/cm'2 UV-A irradiation measured after 4 hrs by agarose gel. The format is functional, cell-based.
A short description of series [16]: Cytotoxicity against mouse NIH/3T3 cells assessed as inhibition of cell viability for 48 hrs in dark by MTT assay. The format is cell-based. Particulars: NIH3T3, 48 h.
The test system of series [17] is A2780. Nature of the series: Drug uptake in human A2780 cell lysosome assessed per focused cells at 3 uM irradiated for 1 hr followed by incubated with LysoTracker. Format: ADME, cell-based. Particulars: a2780, 1 h.
The test system of series [18] is A2780. The experiment in a line: Drug uptake in human A2780 cell lysosome at 0.5 uM irradiated for 1 hr followed by incubated with LysoTracker relative to non-irradiated cells. The format is ADME, cell-based. Particulars: a2780, 1 h.
Series [19] concerns A2780. The experiment in a line: Induction of apoptosis in human A2780 cells assessed as volume and condensation of DNA chromatin at 1 uM for 1 hr in 1.05 J/cm'2 UV-A irradiation measured after 4 hrs by fluorescence microscopy. The format is functional, cell-based.
Series [20] can be described thus: Cytotoxicity against mouse NIH/3T3 cells assessed as inhibition of cell viability for 48 hrs in 1.05 J/cm'2 UV-A irradiation by MTT assay. Format: cell-based. Particulars: NIH3T3, light or radiation study.
The subject of series [21] is A2780. Nature of the series: Drug uptake in human A2780 cell mitochondria assessed per focused cells at 0.5 uM irradiated for 1 hr followed by incubated with 0.1 uM MitoRed for 15 mins. The format is ADME, cell-based. The note with it: a2780, 1 h.
The subject of series [22] is A2780. Nature of the series: Cell cycle arrest in human A2780 cells assessed as cells at sub G0 phase at 1 uM after 4 hrs in dark by PI staining/flow cytometry. Format: functional. On the technique in general: Flow cytometry measures light scatter and fluorescence of single cells or particles in a stream.
In series [23] the test system is A2780. The experiment in a line: Drug uptake in human A2780 cell mitochondria assessed per focused cells at 3 uM irradiated for 1 hr followed by incubated with 0.1 uM MitoRed for 15 mins. Particulars: a2780, 1 h. The format is ADME, cell-based.
The test system of series [24] is A2780. Nature of the series: Drug uptake in human A2780 cell nucleus at 0.5 uM irradiated for 1 hr followed by incubated with 0.1 uM SytoRed for 35 mins. The format is ADME, cell-based. Particulars: a2780, 1 h.
Series [25] has as its system A2780. Nature of the series: Drug uptake in human A2780 cell autophagic vacoules at 0.5 uM irradiated for 1 hr followed by incubated with LysoTracker relative to non-irradiated cellsin presence of MDC. Particulars: a2780, 1 h. Format: ADME, cell-based.
The test system of series [26] is A2780. The experiment in a line: Cell cycle arrest in human A2780 cells assessed as cells at S phase at 1 uM for 1 hr in 1.05 J/cm'2 UV-A irradiation measured after 4 hrs by PI staining/flow cytometry. The format is functional.
In series [27] the test system is A2780. Nature of the series: Cell cycle arrest in human A2780 cells assessed as cells at sub G0 phase at 1 uM for 1 hr in 1.05 J/cm'2 UV-A irradiation measured after 4 hrs by PI staining/flow cytometry. Format: functional.
Series [28] has as its system A2780. The experiment in a line: Induction of apoptosis in human A2780 cells assessed as blebbing of cell membrane at 1 uM for 1 hr in 1.05 J/cm'2 UV-A irradiation measured after 24 hrs by fluorescence microscopy. The format is functional, cell-based.

As for `Nc1ccc2cc3ccc(N)cc3nc2c1`, the IC50 (as a rule, the concentration at which inhibition is half-maximal) came to 0.33 µM in series [1], 0.1 µM in [2], 0.48 µM in series [3] and 0.18 µM in series [4].
With `CCCCCCN1C(=O)CN/C1=N\c1ccc2cc3ccc(/N=C4\NCC(=O)N4CCCCCC)cc3nc2c1.Cl`, the IC50 is 1.58 µM in series [1]; 1.26 µM in [2]; 15.7 µM in series [3]; 0.77 µM in [6]; 0.64 µM in series [7]; 9.58 µM in series [4]. For the same compound, the outcome in series [5] was Active. Also, in series [8], the Activity result is reported as “Non-toxic”.
For the compound `CCCCCN1C(=O)CN/C1=N\c1ccc2cc3ccc(/N=C4\NCC(=O)N4CCCCC)cc3nc2c1.Cl`, the result in [9] and in series [10] was inactive. Moreover, the IC50 in series [1] is 1.43 µM; in [11], greater than 50 µM; in series [2], 1.09 µM; in series [14] it was 28.4 µM; in [16], greater than 50 µM; in series [3], 19.5 µM. For the same compound, the IC50 in series [20] was greater than 30 µM; in series [6], 0.64 µM; in [7] it was 0.59 µM; in [4], 13.8 µM. Further, the Drug uptake result in series [12] is reported as “Not Active”; in [13] it was 7%; in [17] it was 6%; in series [18], 24%; in [21], 2%; in series [23] it was 7%. For the same compound, the Drug uptake entry in series [24] was “Not Active”; in [25], “Active”. The result in series [5], in series [15], in series [19] and in series [28] was Active. Also, the Activity in series [22] is 1.42%; in [26], 43%; in [27], 7.69%; in [8] it was “Non-toxic”.
